Results reported in patent US10844052B2, “LLS compounds for treatment of cancer” (THE REGENTS OF THE UNIVERSITY OF CALIFORNIA, priority 2016, dated 2020).

Tested on: PC3 prostate cancer cells
Assay: Cell viability of prostate cancer PC3 cells after 72 hours treatment
Type: cell-based
Conditions: Homo sapiens; for viability at 2.5 µM: PC-3, 2.5 μM; for viability at 5 µM: PC-3, 5 μM; for viability at 10 µM: PC-3, 10 μM; for viability at 20 µM: PC-3, 20 μM
Protocol: Effects of compounds LLS42-LLS80 on the viability of PC3 prostate cancer cells after 72 hours of treatment are shown in Table 2 below: […]

| SMILES | viability at 2.5 µM | viability at 5 µM | viability at 10 µM | viability at 20 µM |
| --- | --- | --- | --- | --- |
| CC(=O)OCCN(CCO)c1ccc(-c2nc3cc(C(CC(N)=O)NCc4ccc(-c5ccn[nH]5)s4)ccc3n2CCCN(C)C)cc1 (centres unmarked) [LLS66, 2-((4-(5-(1-(((5-(1H-pyrazol-5-yl)thiophen-2-yl)methyl)amino)-3-amino-3-oxopropyl)-1-(3-(dimethylamino)propyl)-1H-benzo[d]imidazol-2-yl)phenyl)(2-hydroxyethyl)amino)ethyl Acetate] | 98% | 91% | 89% | 79% |
| NC(=O)CC(NCc1ccc2[nH]ncc2c1)c1ccc2c(c1)nc(-c1ccc(N(CCO)CCO)cc1)n2Cc1ccc(C(F)(F)F)cc1 (centres unmarked) [LLS77, 3-(((1H-indazol-5-yl)methyl)amino)-3-(2-(4-(bis(2-hydroxyethyl)amino)phenyl)-1-(4-(trifluoromethyl)benzyl)-1H-benzo[d]imidazol-5-yl)propanamide] | 99% | 100% | 101% | 103% |
| NC(=O)CC(NCc1cccc2ccccc12)c1ccc2c(c1)nc(-c1ccc(N(CCO)CCO)cc1)n2Cc1ccc(OC(F)(F)F)cc1 (centres unmarked) [LLS63, 3-(2-(4-(bis(2-hydroxyethyl)amino)phenyl)-1-(4-(trifluoromethoxy)benzyl)-1H-benzo[d]imidazol-5-yl)-3-((naphthalen-1-ylmethyl)amino)propanamide] | 80% | 86% | 29% | 0% |
| COc1cccc(Cn2c(-c3ccc(N(CCO)CCO)cc3)nc3cc(C(CC(N)=O)NCc4ccc5[nH]ncc5c4)ccc32)c1 (centres unmarked) [LLS59, 3-(((1H-indazol-5-yl)methyl)amino)-3-(2-(4-(bis(2-hydroxyethyl)amino)phenyl)-1-(3-methoxybenzyl)-1H-benzo[d]imidazol-5-yl)propanamide] | 83% | 97% | 90% | 91% |
| CN1CCN(c2ccc(-c3nc4cc(C(CC(N)=O)NCc5ccc(Cl)c(Cl)c5)ccc4n3Cc3ccc(C(F)(F)F)cc3)cc2)CC1 (centres unmarked) [LLS64, 3-((3,4-dichlorobenzyl)amino)-3-(2-(4-(4-methylpiperazin-1-yl)phenyl)-1-(4-(trifluoromethyl)benzyl)-1H-benzo[d]imidazol-5-yl)propanamide] | 94% | 83% | 60% | 3% |
| COc1ccc(CCn2c(-c3ccc(N(CCOC(C)=O)CCOC(C)=O)cc3)nc3cc(C(CC(N)=O)NCC4CCCCC4)ccc32)cc1 (centres unmarked) [LLS56Ac, ((4-(5-(3-amino-1-((cyclohexylmethyl)amino)-3-oxopropyl)-1-(4-methoxyphenethyl)-1H-benzo[d]imidazol-2-yl)phenyl)azanediyl)bis(ethane-2,1-diyl) Diacetate] | 85% | 93% | 92% | 55% |
| NCCCn1c(-c2ccc(N(CCO)CCO)cc2)nc2cc(C(CC(N)=O)NCc3ccc(C4CC=NN4)s3)ccc21 (centres unmarked) [LLS54, 3-(1-(3-aminopropyl)-2-(4-(bis(2-hydroxyethyl)amino)phenyl)-1H-benzo[d]imidazol-5-yl)-3-(((5-(4,5-dihydro-1H-pyrazol-5-yl)thiophen-2-yl)methyl)amino)propanamide] | 90% | 86% | 105% | 87% |
| COc1ccc(CCn2c(-c3ccc(N(CCOC(C)=O)CCOC(C)=O)cc3)nc3cc(C(CC(N)=O)NCc4ccc5[nH]ccc5c4)ccc32)cc1 (centres unmarked) [LLS69Ac, ((4-(5-(1-(((1H-indol-5-yl)methyl)amino)-3-amino-3-oxopropyl)-1-(4-methoxyphenethyl)-1H-benzo[d]imidazol-2-yl)phenyl)azanediyl)bis(ethane-2,1-diyl) Diacetate] | 101% | 95% | 73% | 2% |
